Experimental data reported in patent US20240083892A1 (BISICHEM CO., LTD., priority 2021, published 2024).
pIC50: −log10 of the molar value.

Legend:
[1] = biological target: T1, RIPK1 (Homo sapiens, UniProt Q13546); experiment: Immunoblotting of TNFα induced phospho-RIPK1 (ser 166) levels; format: cell-based; conditions: HMC3 cells; Z-VAD-FMK, human TNFα 20 ng/ml, SM-164 100 nM; 7 h, serum free media; read-out: Cell-base RIPK1 activity: phspho-RIPK1 (Ser166)
T1 construct: endogenous in cells; host or cells: HT-29 (KCLB 30038)
T1 sequence (Q13546 1-671): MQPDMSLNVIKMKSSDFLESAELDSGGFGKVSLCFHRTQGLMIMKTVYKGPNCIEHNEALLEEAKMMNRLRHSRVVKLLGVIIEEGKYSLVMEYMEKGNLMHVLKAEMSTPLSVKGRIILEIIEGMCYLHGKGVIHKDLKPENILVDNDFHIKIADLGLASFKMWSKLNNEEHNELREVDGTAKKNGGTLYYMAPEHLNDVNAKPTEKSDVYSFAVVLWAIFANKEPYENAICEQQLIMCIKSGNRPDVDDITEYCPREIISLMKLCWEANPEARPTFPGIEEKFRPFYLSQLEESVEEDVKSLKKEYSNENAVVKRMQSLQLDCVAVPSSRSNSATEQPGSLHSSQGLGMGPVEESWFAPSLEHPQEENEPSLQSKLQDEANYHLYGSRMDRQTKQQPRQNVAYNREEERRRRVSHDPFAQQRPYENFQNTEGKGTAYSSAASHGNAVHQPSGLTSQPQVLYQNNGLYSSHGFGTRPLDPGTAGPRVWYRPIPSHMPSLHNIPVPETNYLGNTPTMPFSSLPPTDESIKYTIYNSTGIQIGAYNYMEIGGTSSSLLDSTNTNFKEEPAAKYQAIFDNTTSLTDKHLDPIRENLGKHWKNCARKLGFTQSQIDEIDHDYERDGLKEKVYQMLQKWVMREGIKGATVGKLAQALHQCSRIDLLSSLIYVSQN
Protocol: (§1) Human colon carcinoma cell HT-29 (KCLB 30038), BV2 mouse microglial cell (cell was a kind gift from Dr. Nak-Yun Sung, Senior researcher at Korea Prime Pharmacy CO., LTD.) and human microglial cell HMC3 (ATCC® CRL-3304™). HT-29 cell was grown in Roswell Park Memorial Institute (RPMI) 1640, BV2 cell was grown in Dulbecco's Modified Eagle's Medium (DMEM) and HMC3 cell was grown in Minimum Essential Media Eagle (MEM) supplemented with 10% fetal bovine serum and 1% mixture of penicillin and streptomycin (Gibco). Cells were maintained at 37° C. in a humidified 5% CO2 atmosphere.
Biological activity of the compounds of RIPK1 inhibitor was determined by measuring their ability to inhibitor TNFα induced phospho-RIPK1 (ser 166) levels, phospho-RIPK3 levels, phospho-MLKL levels in HMC3 cells. Cells were pretreated with Z-VAD-FMK […]. After 30 min, human TNFα 20 ng/ml, SM-164 100 nM and RIPK1 inhibitor (0.1, 1, 10 nM) were treated for 7 h under serum free media. Cells were lysed with cold lysis buffer containing 25 mM HEPES pH 7.6, […] NaCl, 1% NP40, 1% sodium deoxycholate, 0.1% SDS, and protease inhibitor mixture (Bimake, Houston, USA) using sonicators. The cells were centrifuged at 15,000 rpm, 4° C. for 5 min. After protein concentration of the lysates (supernatants) was quantified using BCA assay (Thermo Fisher Scientific, Waltham, USA), lysates were mixed with LDS sample buffer and heating at […] for 10 min. (Invitrogen, California, USA). […] The membranes are placed in an image analyzer (Imagequant, LAS 500, GE Healthcare), connected to a computer which allows the image generation (software Image reader LAS 500).

[2] = biological target: T1, RIPK1; experiment: Cell-based necroptosis assay for RIPK1 activity (cell viability by CCK-8); conditions: HT-29 cells; Z-VAD-FMK 20 μM, human TNFα 10 ng/ml, SM-164 100 nM; 24 h; read-out: Cell-base RIPK1 activity: Necroptosis
Protocol: as §1
To measure the activity of RIPK1 inhibitor in necroptotic cells, HT-29 cells were treated by control DMSO, human TNFα (Peprotech, Rocky Hill, USA), SM-164 (Biovision, California, USA) and a pan-caspase inhibitor Z-VAD-FMK (Invivogen, San Diego, USA). Cells were pretreated with Z-VAD-FMK 20 μM. After 30 min, human TNFα 10 ng/ml, SM-164 100 nM and RIPK1 Inhibitor (0.0001, 0.001, 0.01, 0.02, 0.05, 0.1, 1, 10 uM) were treated for 24 h. Cell viability was measured by Cell Counting Kit 8 (CCK-8) (Dong-in, Seoul, Korea).

SMILES | pIC50 [1] | pIC50 [2]
CN1C(=O)[C@@H](NC(=O)n2cc(Cc3cccc(F)c3)cn2)COc2ccc(OCC(=O)N3CCC(C(C)(C)O)CC3)cc21 [Example 43, (S)-4-(3-fluorobenzyl)-N-(7-(2-(4-(2-hydroxypropan-2-yl)piperidin-1-yl)-2-oxoethoxy)-5-methyl-4-oxo-2,3,4,5-tetrahydrobenzo[b][1,4]oxazepin-3-yl)-1H-pyrazole-1-carboxamide] | > 8.00 | > 8.00
CN1C(=O)[C@@H](NC(=O)n2cc(Cc3cccc(F)c3)cn2)COc2ccc(OCCN3CCC(C)(O)CC3)cc21 [Example 18, (S)-4-(3-fluorobenzyl)-N-(7-(2-(4-hydroxy-4-methylpiperidin-1-yl)ethoxy)-5-methyl-4-oxo-2,3,4,5-tetrahydrobenzo[b][1,4]oxazepin-3-yl)-1H-pyrazole-1-carboxamide] | > 8.00 | > 8.00
CN1CCN(C(=O)c2ccc3c(c2)N(C)C(=O)[C@@H](NC(=O)n2cc(Cc4cccc(F)c4)cn2)CO3)CC1 [Example 7, (S)-4-(3-fluorobenzyl)-N-(5-methyl-7-(4-methylpiperazine-1-carbonyl)-4-oxo-2,3,4,5-tetrahydrobenzo[b][1,4]oxazepin-3-yl)-1H-pyrazole-1-carboxamide] |  | 7.30 to 8.00
CN1C(=O)[C@@H](NC(=O)n2cc(Cc3cccc(F)c3)cn2)COc2ccc(OCC(=O)NCC(C)(C)O)cc21 [Example 52, (S)-4-(3-fluorobenzyl)-N-(7-(2-((2-hydroxy-2-methylpropyl)amino)-2-oxoethoxy)-5-methyl-4-oxo-2,3,4,5-tetrahydrobenzo[b][1,4]oxazepin-3-yl)-1H-pyrazole-1-carboxamide] |  | > 8.00
CN1C(=O)[C@@H](NC(=O)n2cc(Cc3cccc(F)c3)cn2)COc2ccc(OCC(=O)N3CCOCC3)cc21 [Example 39, (S)-4-(3-fluorobenzyl)-N-(5-methyl-7-(2-morpholino-2-oxoethoxy)-4-oxo-2,3,4,5-tetrahydrobenzo[b][1,4]oxazepin-3-yl)-1H-pyrazole-1-carboxamide] | > 8.00 | > 8.00
CN1C(=O)[C@@H](NC(=O)n2cc(Cc3cccc(F)c3)cn2)COc2ccc(O[C@@H]3CCOC3)cc21 [Example 32, 4-(3-fluorobenzyl)-N—((S)-5-methyl-4-oxo-7-(((R)-tetrahydrofuran-3-yl)oxy)-2,3,4,5-tetrahydrobenzo[b][1,4]oxazepin-3-yl)-1H-pyrazole-1-carboxamide] |  | > 8.00
CN1C(=O)[C@@H](NC(=O)n2cc(Cc3cccc(F)c3)cn2)COc2ccc(C(=O)N3CCOCC3)cc21 [Example 9, (S)-4-(3-fluorobenzyl)-N-(5-methyl-7-(morpholine-4-carbonyl)-4-oxo-2,3,4,5-tetrahydrobenzo[b][1,4]oxazepin-3-yl)-1H-pyrazole-1-carboxamide] |  | 7.30 to 8.00
CN(C)CCOc1ccc2c(c1)N(C)C(=O)[C@@H](NC(=O)n1cc(Cc3cccc(F)c3)cn1)CO2 [Example 17, (S)—N-(7-(2-(dimethylamino)ethoxy)-5-methyl-4-oxo-2,3,4,5-tetrahydrobenzo[b][1,4]oxazepin-3-yl)-4-(3-fluorobenzyl)-1H-pyrazole-1-carboxamide] |  | 7.30 to 8.00
CN1C(=O)[C@@H](NC(=O)n2cc(Cc3cccc(F)c3)cn2)COc2ccc(C(=O)N3CCC(O)C3)cc21 (stereo partly drawn) [Example 10, 4-(3-fluorobenzyl)-N-((3S)-7-(3-hydroxypyrrolidine-1-carbonyl)-5-methyl-4-oxo-2,3,4,5-tetrahydrobenzo[b][1,4]oxazepin-3-yl)-1H-pyrazole-1-carboxamide] |  | > 8.00
CN1C(=O)[C@@H](NC(=O)n2cc(Cc3cccc(F)c3)cn2)COc2ccc(C(=O)N3CCNCC3)cc21 [Example 8, (S)-4-(3-fluorobenzyl)-N-(5-methyl-4-oxo-7-(piperazine-1-carbonyl)-2,3,4,5-tetrahydrobenzo[b][1,4]oxazepin-3-yl)-1H-pyrazole-1-carboxamide] |  | < 7.30
CN1CC[C@@H](Oc2ccc3c(c2)N(C)C(=O)[C@@H](NC(=O)n2cc(Cc4cccc(F)c4)cn2)CO3)C1 [Example 33, 4-(3-fluorobenzyl)-N—((S)-5-methyl-7-(((R)-1-methylpyrrolidin-3-yl)oxy)-4-oxo-2,3,4,5-tetrahydrobenzo[b][1,4]oxazepin-3-yl)-1H-pyrazole-1-carboxamide] |  | 7.30 to 8.00
CN1C(=O)[C@@H](NC(=O)n2cc(Cc3cccc(F)c3)cn2)COc2ccc(C(=O)NOCC(C)(C)O)cc21 [Example 13, (S)-3-(4-(3-fluorobenzyl)-1H-pyrazole-1-carboxamido)-N-(2-hydroxy-2-methylpropoxy)-5-methyl-4-oxo-2,3,4,5-tetrahydrobenzo[b][1,4]oxazepine-7-carboxamide] |  | 7.30 to 8.00

Further lines, with some results ahead:

pIC50 [1] | SMILES | pIC50 [2]
7.30 to 8.00 | CN(C(=O)c1ccc2c(c1)N(C)C(=O)[C@@H](NC(=O)n1cc(Cc3cccc(F)c3)cn1)CO2)c1ccncc1 [Example 12, (S)-3-(4-(3-fluorobenzyl)-1H-pyrazole-1-carboxamido)-N,5-dimethyl-4-oxo-N-(pyridin-4-yl)-2,3,4,5-tetrahydrobenzo[b][1,4]oxazepine-7-carboxamide] | 7.30 to 8.00
7.30 to 8.00 | CN1C(=O)[C@@H](NC(=O)n2cc(Cc3cccc(F)c3)cn2)COc2ccc(C(=O)N3CC4(COC4)C3)cc21 [Example 14, (S)-4-(3-fluorobenzyl)-N-(5-methyl-4-oxo-7-(2-oxa-6-azaspiro[3.3]heptane-6-carbonyl)-2,3,4,5-tetrahydrobenzo[b][1,4]oxazepin-3-yl)-1H-pyrazole-1-carboxamide] | 7.30 to 8.00
> 8.00 | CN(Cc1ccncc1)C(=O)c1ccc2c(c1)N(C)C(=O)[C@@H](NC(=O)n1cc(Cc3cccc(F)c3)cn1)CO2 [Example 11] | > 8.00
> 8.00 | CN1C(=O)[C@@H](NC(=O)n2cc(Cc3cccc(F)c3)cn2)COc2ccc(OCC#Cc3cccnc3)cc21 [Example 25, (S)-4-(3-fluorobenzyl)-N-(5-methyl-4-oxo-7-((3-(pyridin-3-yl)prop-2-yn-1-yl)oxy)-2,3,4,5-tetrahydrobenzo[b][1,4]oxazepin-3-yl)-1H-pyrazole-1-carboxamide] | > 8.00
> 8.00 | CN1C(=O)[C@@H](NC(=O)n2cc(Cc3cccc(F)c3)cn2)COc2ccc(OCC(=O)N3CC(O)C3)cc21 [Example 50, (S)-4-(3-fluorobenzyl)-N-(7-(2-(3-hydroxyazetidin-1-yl)-2-oxoethoxy)-5-methyl-4-oxo-2,3,4,5-tetrahydrobenzo[b][1,4]oxazepin-3-yl)-1H-pyrazole-1-carboxamide] | > 8.00
> 8.00 | CN1C(=O)[C@@H](NC(=O)n2cc(Cc3cccc(F)c3)cn2)COc2ccc(OCC(=O)N3CCC(C)(O)CC3)cc21 [Example 41, (S)-4-(3-fluorobenzyl)-N-(7-(2-(4-hydroxy-4-methylpiperidin-1-yl)-2-oxoethoxy)-5-methyl-4-oxo-2,3,4,5-tetrahydrobenzo[b][1,4]oxazepin-3-yl)-1H-pyrazole-1-carboxamide] | > 8.00
